Results on 16 compounds are retold here after US9815787B2, “Sulfonamide derivative or pharmaceutically acceptable acid addition salt thereof” (UNIVERSITY OF TSUKUBA, priority 2013, dated 2017).

Each structure is given as a SMILES string.

This assay deals with T1, OX2R (Homo sapiens, UniProt O43614).
T1 construct: expressed in transfected cells; host or cells: CHO (Chinese hamster ovary) cells constitutively expressing the OX2R gene and NFAT-luciferase (CHOOX2R)
T1 sequence (O43614 1-444): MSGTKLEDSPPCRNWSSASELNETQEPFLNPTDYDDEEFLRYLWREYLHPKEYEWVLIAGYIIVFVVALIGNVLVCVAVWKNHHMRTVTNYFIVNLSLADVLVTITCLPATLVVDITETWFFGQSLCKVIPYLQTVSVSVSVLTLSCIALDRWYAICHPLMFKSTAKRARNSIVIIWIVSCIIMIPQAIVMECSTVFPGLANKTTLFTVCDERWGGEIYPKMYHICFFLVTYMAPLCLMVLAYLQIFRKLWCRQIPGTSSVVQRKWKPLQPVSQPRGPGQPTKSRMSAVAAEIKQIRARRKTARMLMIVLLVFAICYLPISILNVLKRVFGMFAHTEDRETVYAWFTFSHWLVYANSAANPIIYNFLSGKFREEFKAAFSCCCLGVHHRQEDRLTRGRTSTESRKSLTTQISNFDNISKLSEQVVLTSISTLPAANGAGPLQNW
Nature of the assay: Evaluation of agonist activity against OX2R (CHOOX2R cells, Fura2AM fluorescence, FDSS3000). Format: cell-based. The method in brief:
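CHO cells stably expressing human OX2R (and NFAT-luciferase), cultured 48 h in 5% FBS DMEM. Agonist response read as change in Fura2AM fluorescence on compound addition in HEPES buffer. Final compound concentrations 0.1, 1.0 or 10 μM; 1% DMSO.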

Setting [1] is: OX2R agonist activity; CHOOX2R cells.
[2] abbreviates: conversion with orexin-A as full agonist (maximum agonist activity 100%).
Where [3] appears, read: test compound 0.1 μM; CHOOX2R cells; relative to orexin-A as full agonist (100%).
[4] abbreviates: test compound 1.0 μM; CHOOX2R cells; relative to orexin-A as full agonist (100%).
[5] abbreviates: test compound 10 μM; CHOOX2R cells; relative to orexin-A as full agonist (100%).
Setting [6] is: test compound 0.1 μM; relative to orexin-A as full agonist (100%); CHOOX2R cells.
Setting [7] is: test compound 1.0 μM; relative to orexin-A as full agonist (100%); CHOOX2R cells.
[8] abbreviates: test compound 10 μM; relative to orexin-A as full agonist (100%); CHOOX2R cells.

As usually defined, the EC50 is the concentration giving half of the maximal effect. Read a high EC50 as a less potent agent. One may read the Emax as the greatest response seen or fitted, relative to the assay's reference. Take `COc1ccc(-c2cccc(C(=O)N(C)C)c2)cc1S(=O)(=O)Nc1cccc(NCCNC(=O)c2ccccc2Cl)c1` [Example 42, 3′-(N-(3-((2-(2-chlorobenzamido)ethyl)amino)phenyl)sulfamoyl)-4′-methoxy-N,N-dimethyl-[1,1′-biphenyl]-3-carboxamide]: the EC50 under setting [1] worked out at 0.031 µM. Further, under setting [2], the Emax was 90%. Besides, under setting [3], the “Response (0.1 μM (%))” value is 65%. Moreover, the “Response (1.0 μM (%))” value under setting [4] came to 103%. Also, the “Response (10 μM (%))” value under setting [5] was 114%.
With `COc1ccccc1C(=O)NCCNc1cccc(NS(=O)(=O)c2cc(-c3cccc(C(=O)N4CCCC4)c3)ccc2OC)c1` [Example 75, 2-methoxy-N-(2-((3-(4-methoxy-3′-(pyrrolidine-1-carbonyl)-1-[1,1′-biphenyl]-3-ylsulfonamide)phenyl)amino)ethyl)benzamide], it took 0.077 µM to reach a half-maximal effect under setting [1] (EC50). This compound gave an Emax under setting [2] of 87%. Also, the “Response (0.1 μM (%))” value under setting [3] is reported as 49%. For the same compound, the “Response (1.0 μM (%))” value under setting [4] was found to be 87%. The “Response (10 μM (%))” value under setting [5] is given as 76%.
For `COc1ccc(-c2ccccc2F)cc1S(=O)(=O)Nc1cccc(NCCNC(=O)c2ccccn2)c1` [Example 14, N-(2-((3-(2′-fluoro-4-methoxy-[1,1′-biphenyl]-3-ylsulfonamide)phenyl)amino)ethyl)picolinamide], the “Response (0.1 μM (%))” value under setting [6] was less than 5%. Besides, under setting [7], the “Response (1.0 μM (%))” value is less than 5%. Under setting [8], the “Response (10 μM (%))” value is listed as 8%.
With `COc1ccccc1C(=O)NCCNc1cccc(NS(=O)(=O)c2cc(-c3cccc(C(=O)N4CCC4)c3)ccc2OC)c1` [Example 81, N-(2-((3-(3′-(azetidine-1-carbonyl)-4-methoxy-[1,1′-biphenyl]-3-ylsulfonamido)phenyl)amino)ethyl)-2-methoxybenzamide], under setting [1], the EC50 is 0.365 µM. Under setting [2], this compound showed an Emax of 85%. Besides, the “Response (0.1 μM (%))” value under setting [3] worked out at 75%. Also, the “Response (1.0 μM (%))” value under setting [4] was determined as 98%. Under setting [5], the “Response (10 μM (%))” value is on record as 98%.
With `COc1cccc(C(=O)NCCNc2cccc(NS(=O)(=O)c3cc(-c4cccc(OC)n4)ccc3OC)c2)c1` [Example 95, 3-methoxy-N-(2-((3-(2-methoxy-5-(6-methoxypyridin-2-yl)phenylsulfonamido)phenyl)amino)ethyl)benzamide], under setting [3], the “Response (0.1 μM (%))” value is less than 5%. Also, under setting [4], the “Response (1.0 μM (%))” value is on record as less than 5%. Moreover, under setting [5], the “Response (10 μM (%))” value was determined as 30%.
Compound `COc1cccc(C(=O)NCCNc2cccc(NS(=O)(=O)c3cc(-c4cccc(Cl)c4)ccc3OC)c2)c1` [Example 29, N-(2-((3-(3′-chloro-4-methoxy-[1,1′-biphenyl]-3-ylsulfonamide)phenyl)amino)ethyl)-3-methoxybenzamide] yielded an EC50 under setting [1] of 0.8 µM. The compound further returned an Emax under setting [2] of 54%. Also, the “Response (0.1 μM (%))” value under setting [6] was less than 5%. For the same compound, under setting [7], the “Response (1.0 μM (%))” value was 16%. The “Response (10 μM (%))” value under setting [8] was 73%.
Turning to `COc1ccc(-c2cccc(C(=O)N(C)C)c2)cc1S(=O)(=O)Nc1cccc(NCCNC(=O)c2ncccc2Cl)c1` [Example 51, 3-chloro-N-(2-((3-(3′-(dimethylcarbamoyl)-4-methoxy-[1,1′-biphenyl]-3-ylsulfonamido)phenyl)amino)ethyl)picolinamide], under setting [1], the EC50 amounted to 3.28 µM. Under setting [2], this compound came in with an Emax of 87%. Moreover, the “Response (0.1 μM (%))” value under setting [3] is less than 5%. Besides, under setting [4], the “Response (1.0 μM (%))” value was found to be 9%. Moreover, the “Response (10 μM (%))” value under setting [5] is recorded as 87%.
`COCCN(C)C(=O)c1cccc(-c2ccc(OC)c(S(=O)(=O)Nc3cccc(NCCNC(=O)c4ccccc4OC)c3)c2)c1` [Example 77, 4′-methoxy-3′-(N-(3-((2-(2-methoxybenzamido)ethyl)amino)phenyl)sulfamoyl)-N-(2-methoxyethyl)-N-methyl-[1,1′-biphenyl]-3-carboxamide]: under setting [3], the “Response (0.1 μM (%))” value amounted to 42%. The “Response (1.0 μM (%))” value under setting [4] was 91%. Under setting [5], the “Response (10 μM (%))” value was 82%.
On to `COc1ccc(F)c(-c2ccc(OC)c(S(=O)(=O)Nc3cccc(NCCNC(=O)c4ccccc4OC)c3)c2)c1` [Example 34, N-(2-((3-(2′-fluoro-4,5′-dimethoxy-[1,1′-biphenyl]-3-ylsulfonamide)phenyl)amino)ethyl)-2-methoxybenzamide], for which the “Response (0.1 μM (%))” value under setting [3] came out at 13%. Besides, the “Response (1.0 μM (%))” value under setting [4] is given as 64%. In addition, under setting [5], the “Response (10 μM (%))” value was found to be 123%.
`COc1cccc(-c2ccc(OC)c(S(=O)(=O)Nc3cccc(NCCNC(=O)c4ccccc4OC)c3)c2)n1` [Example 94, 2-methoxy-N-(2-((3-(2-methoxy-5-(6-methoxypyridin-2-yl)phenylsulfonamido)phenyl)amino)ethyl)benzamide]: the “Response (0.1 μM (%))” value under setting [3] is on record as less than 5%. Also, under setting [4], the “Response (1.0 μM (%))” value is less than 5%. Under setting [5], the “Response (10 μM (%))” value came out at 22%.
Take `COc1ccccc1C(=O)NCCNc1cccc(NS(=O)(=O)c2cc(-c3cccc(C(=O)N(C)C)c3)ccc2F)c1` [Example 107, 4′-fluoro-3′-(N-(3-((2-(2-methoxybenzamido)ethyl)amino)phenyl)sulfamoyl)-N,N-dimethyl-[1,1′-biphenyl]-3-carboxamide]: under setting [6], the “Response (0.1 μM (%))” value was 65%. For the same compound, under setting [7], the “Response (1.0 μM (%))” value is 79%. For the same compound, the “Response (10 μM (%))” value under setting [8] is 82%.
The corresponding values for `COc1ccc(N(C)C)cc1C(=O)NCCNc1cccc(NS(=O)(=O)c2cc(-c3ccccc3F)ccc2OC)c1` [Example 5, 5-(dimethylamino)-N-(2-((3-(2′-fluoro-4-methoxy-[1,1′-biphenyl]-3-ylsulfonamide)phenyl)amino)ethyl)-2-methoxybenzamide] are less than 5%, less than 5% and 23%.
Under setting [1], `COc1ccc(-c2cccc(C(=O)N(C)C)c2)cc1S(=O)(=O)Nc1cccc(NCCNC(=O)c2cc(F)ccc2F)c1` [Example 53, 3′-(N-(3-((2-(2,5-difluorobenzamido)ethyl)amino)phenyl)sulfamoyl)-4′-methoxy-N,N-dimethyl-[1,1′-biphenyl]-3-carboxamide] came in with an EC50 of 1.15 µM. This compound came in with an Emax under setting [2] of 87%. Under setting [3], the “Response (0.1 μM (%))” value came to 46%. For the same compound, the “Response (1.0 μM (%))” value under setting [4] amounted to 89%. Further, under setting [5], the “Response (10 μM (%))” value amounted to 66%.
For the compound `COc1ccccc1C(=O)NCCNc1cccc(NS(=O)(=O)c2cc(-c3ccccc3OC)ccc2OC)c1` [Example 12, N-(2-((3-(2′,4-dimethoxy-[1,1′-biphenyl]-3-ylsulfonamide)phenyl)amino)ethyl)-2-methoxybenzamide], the “Response (0.1 μM (%))” value under setting [6] was less than 5%. Moreover, the “Response (1.0 μM (%))” value under setting [7] is on record as 44%. For the same compound, the “Response (10 μM (%))” value under setting [8] is on record as 73%.
Turning to `COc1ccc(-c2ccccc2F)cc1S(=O)(=O)Nc1cccc(NCCNC(=O)c2ccccc2O)c1` [Example 6, N-(2-((3-(2′-fluoro-4-methoxy-[1,1′-biphenyl]-3-ylsulfonamide)phenyl)amino)ethyl)-2-hydroxybenzamide], under setting [6], the “Response (0.1 μM (%))” value was less than 5%. Further, the “Response (1.0 μM (%))” value under setting [7] was less than 5%. Besides, the “Response (10 μM (%))” value under setting [8] stood at 7%.
As for `COc1ccc(-c2cccc(C(=O)N(C)C)c2)cc1S(=O)(=O)Nc1cccc(NCCNC(=O)c2c(F)cccc2OC)c1` [Example 70, 3′-(N-(3-((2-(2-fluoro-6-methoxybenzamido)ethyl)amino)phenyl)sulfamoyl)-4′-methoxy-N,N-dimethyl-[1,1′-biphenyl]-3-carboxamide], under setting [3], the “Response (0.1 μM (%))” value came out at 34%. Moreover, the “Response (1.0 μM (%))” value under setting [4] worked out at 105%. Under setting [5], the “Response (10 μM (%))” value came out at 85%.
